The values that follow come from patent US5830917A, “L-N^6 -(1-iminoethyl) lysine derivatives useful as nitric oxide synthase inhibitors” (G. D. Searle & Co., priority 1995, dated 1998).

For assay [1], the target named is T1, human endothelial constitutive NOS (hecNOS) (Homo sapiens, UniProt P29474).
T1 construct: made in house; host or cells: insect cells, baculovirus vector
Put plainly: Citrulline Assay for Nitric Oxide Synthase, hecNOS. The assay is classed as biochemical. The settings on record: 37° C., 15 minutes, with calmodulin 40-100 nM. As to the method: (§1) Citrulline Assay for Nitric Oxide Synthase
(§2) Nitric oxide synthase activity was measured by monitoring the conversion of L-[2,3-3H]-arginine to L-[2,3-3H]-citrulline (1,2). The cDNA for human inducible NOS (hiNOS) was isolated from a λcDNA library made from RNA extracted from a colon sample from a patient with ulcerative colitis; human endothelial constitutive NOS (hecNOS) was isolated from a λcDNA library made from RNA extracted from human umbilical vein endothelial cells (HUVEC); and human neuronal constitutive NOS (hncNOS) was isolated from a λcDNA library made from RNA extracted from human cerebellum from a cadaver. The recombinant enzymes were expressed in insect cells using a baculovirus vector. Enzyme activity was isolated from cell extracts and partially purified by DEAE-Sepharose chromatography (2). Enzyme and inhibitors were added to give a volume of 50 μL in 50 mM Tris (pH 7.6) and the reaction initiated by the addition of 50 μL of a solution containing 50 mM Tris (pH 7.6), 2.0 mg/mL bovine serum albumin, 2.0 mM DTT, 4.0 mM CaCl2, 20 μM FAD, 100 μM tetrahydrobiopterin, 0.4-2.0 mM NADPH and 60 μM L-arginine containing 0.9 μCi of L-[2,3-3H]-arginine. […] The [3H]-citrulline was separated by chromatography on Dowex 50W X-8 cation exchange resin and radioactivity quantified with a liquid scintillation counter.

Assay [2] concerns the target T2, human inducible NOS (hiNOS) (Homo sapiens, UniProt P35228).
T2 construct: made in house; host or cells: insect cells, baculovirus vector
Briefly: Citrulline Assay for Nitric Oxide Synthase, hiNOS. Format: biochemical. The settings on record: 37° C., 15 minutes, L-[2,3-3H]-arginine to citrulline. The procedure: as §1, §2

Assay [3] addresses T3, human neuronal constitutive NOS (hncNOS) (Homo sapiens, UniProt P29475).
T3 construct: made in house; host or cells: insect cells, baculovirus vector
Briefly: Citrulline Assay for Nitric Oxide Synthase, hncNOS. The assay is classed as biochemical. The settings on record: 37° C., 15 minutes, with calmodulin 40-100 nM. The procedure:
as §1, §2

The subject of assay [4] is constitutive and the inducible NO synthase. The settings on record: background statement; cited from earlier work.

Each structure is given as a SMILES string. Counter-ions that a name gives are not always drawn.

Broadly, the IC50 is the midpoint of a concentration-inhibition curve.

For the compound `CC(=N)NCCCC[C@H](N)CNC(=N)N` [Example 2, N-[5S-amino-6-[(aminoiminomethyl)amino]hexyl]ethanimidamide, trihydrochloride], the IC50 turned out to be 0.479 mM in assay [1], 22 µM in assay [2] and 35 µM in assay [3].

With `CC(=N)NCCCC[C@H](N)CNS(C)(=O)=O` [Example 3, N-[5S-amino-6-[(methylsulfonyl)amino]hexyl]ethanimidamide, dihydrochloride], the IC50 in assay [1] stood at 6.62 mM; in assay [2] it was 106 µM; in assay [3], 837 µM.

In the case of `CN=C(N)NCCC[C@H](N)C(=O)O` [L-NMMA, L-N-monomethyl-arginine], the “selectivity between constitutive and inducible NO synthase” value in assay [4] is “non-selective”.
